Measurements published in ChEMBL document CHEMBL6182873, “Fungal dimeric xanthones as anticancer agents by novelly stimulating sodium-calcium exchanger 1” (Eur J Med Chem, 2025).
Blank lines part the entries; values can stand above or below the molecule they belong to. Calls of active or inactive are those of the source. No cut-off for these calls is given here.

Experiments:
AGS [1] = test: Anti-proliferative activity against human AGS cells assessed as inhibition of cell viability incubated for 48 hrs by CCK8 assay; type: functional, cell-based
AGS [2] = test: Potency index, ratio of cisplatin IC50 to test compound IC50 for anti-proliferative activity against human AGS cells assessed as inhibition of cell viability incubated for 48 hrs by CCK8 assay; type: functional
GES1 = test: Anti-proliferative activity against human GES1 cells; type: toxicity, cell-based
Gastric cancer cell = test: Anti-proliferative activity against human gastric cancer cells assessed as reduction in cell proliferation at 10 to 40 uM; type: functional, cell-based; settings: dose 10-40 µM
AGS [3] = test: Inhibition of cell migration in human AGS cells at 5 uM incubated up to 24 hrs by scratch wound healing assay; type: functional, cell-based
AGS [4] = test: Inhibition of cell migration in human AGS cells at 5 uM by transwell assay; type: functional, cell-based
AGS [5] = test: Induction of apoptosis in human AGS cells assessed as viable cells at 5 uM by Annexin V-FITC/PI staining based flow cytometry (reference value: 94.1 %); type: functional; settings: read-out: Activity
AGS [6] = test: Induction of apoptosis in human AGS cells assessed as early apoptotic cells at 5 uM by Annexin V-FITC/PI staining based flow cytometry (reference value: 4.25 %); type: functional
AGS [7] = test: Induction of apoptosis in human AGS cells assessed as late apoptotic cells at 5 uM by Annexin V-FITC/PI staining based flow cytometry (reference value: 1.43 %); type: functional
AGS [8] = test: Induction of apoptosis in human AGS cells assessed as necrotic cells at 5 uM by Annexin V-FITC/PI staining based flow cytometry (reference value: 0.20 %); type: functional
AGS [9] = test: Induction of apoptosis in human AGS cells assessed as viable cells at 10 uM by Annexin V-FITC/PI staining based flow cytometry (reference value: 94.1 %); type: functional; settings: read-out: Activity
AGS [10] = test: Induction of apoptosis in human AGS cells assessed as early apoptotic cells at 10 uM by Annexin V-FITC/PI staining based flow cytometry (reference value: 4.25 %); type: functional
AGS [11] = test: Induction of apoptosis in human AGS cells assessed as late apoptotic cells at 10 uM by Annexin V-FITC/PI staining based flow cytometry (reference value: 1.43 %); type: functional
AGS [12] = test: Induction of apoptosis in human AGS cells assessed as necrotic cells at 10 uM by Annexin V-FITC/PI staining based flow cytometry (reference value: 0.20 %); type: functional
AGS [13] = test: Induction of apoptosis in human AGS cells assessed as viable cells at 20 uM by Annexin V-FITC/PI staining based flow cytometry (reference value: 94.1 %); type: functional; settings: read-out: Activity
AGS [14] = test: Induction of apoptosis in human AGS cells assessed as early apoptotic cells at 20 uM by Annexin V-FITC/PI staining based flow cytometry (reference value: 4.25 %); type: functional
AGS [15] = test: Induction of apoptosis in human AGS cells assessed as late apoptotic cells at 20 uM by Annexin V-FITC/PI staining based flow cytometry (reference value: 1.43 %); type: functional
AGS [16] = test: Induction of apoptosis in human AGS cells assessed as necrotic cells at 20 uM by Annexin V-FITC/PI staining based flow cytometry (reference value: 0.20 %); type: functional
AGS [17] = test: Induction of cell cycle arrest in human AGS cells assessed as cell accumulation at G1 phase at 5 uM by PI staining based flow cytometry (reference value: 41.9 %); type: functional
AGS [18] = test: Induction of cell cycle arrest in human AGS cells assessed as cell accumulation at S phase at 5 uM by PI staining based flow cytometry (reference value: 32.4 %); type: functional
AGS [19] = test: Induction of cell cycle arrest in human AGS cells assessed as cell accumulation at G2 phase at 5 uM by PI staining based flow cytometry (reference value: 25.7 %); type: functional
[20] = target: Sodium/calcium exchanger 1 (Homo sapiens) (UniProt P32418); test: Activation of NCX1 in human AGS cells assessed as increase in intracellular Fluo4-Ca2+ level at 5 uM in presence of extracellular Fluo4-Ca2+ by cell imaging analysis; type: cell-based; settings: filed as activator
[21] = target: Sodium/calcium exchanger 1 (Homo sapiens) (UniProt P32418); test: Activation of NCX1 in human DLD-1 cells assessed as increase in intracellular Fluo4-Ca2+ level at 5 uM in presence of extracellular Fluo4-Ca2+ by cell imaging analysis; type: cell-based
[22] = target: Sodium/calcium exchanger 1 (Homo sapiens) (UniProt P32418); test: Activation of NCX1 in human AGS cells assessed as increase in intracellular Fluo4-Ca2+ level at 5 uM in presence of extracellular Fluo4-Ca2+/SN6 by cell imaging analysis; type: cell-based
[23] = target: Sodium/calcium exchanger 1 (Homo sapiens) (UniProt P32418); test: Activation of NCX1 in human AGS cells harboring shNCX1 assessed as increase in intracellular Fluo4-Ca2+ level at 5 uM in presence of extracellular Fluo4-Ca2+ by cell imaging analysis; type: cell-based
[24] = target: Sodium/calcium exchanger 1 (Homo sapiens) (UniProt P32418); test: Activation of NCX1 in human AGS cells assessed as induction of membrane currents at 5 uM in presence of extracellular Fluo4-Ca2+ by cell imaging analysis; type: cell-based; settings: filed as activator
[25] = target: Sodium/calcium exchanger 1 (Homo sapiens) (UniProt P32418); test: Activation of NCX1 in human AGS cells assessed as induction of membrane currents at 5 uM in presence of extracellular Fluo4-Ca2+/SN6 by cell imaging analysis; type: cell-based
AGS [26] = test: Downregulation of PI3K level in human AGS cells by Western blot analysis; type: functional, cell-based; settings: dose <= 10.0 µM
AGS [27] = test: Downregulation of AKT level in human AGS cells by Western blot analysis; type: functional, cell-based; settings: dose <= 10.0 µM
AGS [28] = test: Downregulation of beta-catenin level in human AGS cells by Western blot analysis; type: functional, cell-based; settings: dose <= 10.0 µM
AGS [29] = test: Downregulation of PI3K level in human AGS cells at 5 uM in presence of SN 6 by Western blot analysis; type: functional, cell-based
AGS [30] = test: Downregulation of AKT level in human AGS cells at 5 uM in presence of SN 6 by Western blot analysis; type: functional, cell-based
AGS [31] = test: Downregulation of beta-catenin level in human AGS cells at 5 uM in presence of SN 6 by Western blot analysis; type: functional, cell-based
AGS [32] = test: Effect on ERK1/2 level in human AGS cells up to 10 uM by Western blot analysis; type: functional, cell-based
B16 [33] = test: Antiproliferative activity against mouse B16 cells assessed as inhibition of cell viability; type: functional, cell-based
B16 [34] = test: Activation of NCX1 in mouse B16 cells assessed as increase in intracellular Fluo4-Ca2+ level at 5 uM in presence of extracellular Fluo4-Ca2+ by cell imaging analysis; type: cell-based; settings: filed as activator
B16 [35] = test: Activation of NCX1 in mouse B16 cells assessed as increase in intracellular Fluo4-Ca2+ level at 5 uM in presence of extracellular Fluo4-Ca2+/SN 6 by cell imaging analysis; type: cell-based
B16 [36] = test: Activation of NCX1 in mouse B16 cells harboring shNCX1 assessed as increase in intracellular Fluo4-Ca2+ level at 5 uM in presence of extracellular Fluo4-Ca2+ by cell imaging analysis; type: cell-based
B16 [37] = test: Antitumor activity against mouse B16 cells implanted in nude mouse at 2.5 to 5 mg/kg, ip; type: functional, organism-based; settings: dose 2.5-5 mg/kg

Sodium/calcium exchanger 1 (Homo sapiens), sequence (P32418 36-973 limits assumed): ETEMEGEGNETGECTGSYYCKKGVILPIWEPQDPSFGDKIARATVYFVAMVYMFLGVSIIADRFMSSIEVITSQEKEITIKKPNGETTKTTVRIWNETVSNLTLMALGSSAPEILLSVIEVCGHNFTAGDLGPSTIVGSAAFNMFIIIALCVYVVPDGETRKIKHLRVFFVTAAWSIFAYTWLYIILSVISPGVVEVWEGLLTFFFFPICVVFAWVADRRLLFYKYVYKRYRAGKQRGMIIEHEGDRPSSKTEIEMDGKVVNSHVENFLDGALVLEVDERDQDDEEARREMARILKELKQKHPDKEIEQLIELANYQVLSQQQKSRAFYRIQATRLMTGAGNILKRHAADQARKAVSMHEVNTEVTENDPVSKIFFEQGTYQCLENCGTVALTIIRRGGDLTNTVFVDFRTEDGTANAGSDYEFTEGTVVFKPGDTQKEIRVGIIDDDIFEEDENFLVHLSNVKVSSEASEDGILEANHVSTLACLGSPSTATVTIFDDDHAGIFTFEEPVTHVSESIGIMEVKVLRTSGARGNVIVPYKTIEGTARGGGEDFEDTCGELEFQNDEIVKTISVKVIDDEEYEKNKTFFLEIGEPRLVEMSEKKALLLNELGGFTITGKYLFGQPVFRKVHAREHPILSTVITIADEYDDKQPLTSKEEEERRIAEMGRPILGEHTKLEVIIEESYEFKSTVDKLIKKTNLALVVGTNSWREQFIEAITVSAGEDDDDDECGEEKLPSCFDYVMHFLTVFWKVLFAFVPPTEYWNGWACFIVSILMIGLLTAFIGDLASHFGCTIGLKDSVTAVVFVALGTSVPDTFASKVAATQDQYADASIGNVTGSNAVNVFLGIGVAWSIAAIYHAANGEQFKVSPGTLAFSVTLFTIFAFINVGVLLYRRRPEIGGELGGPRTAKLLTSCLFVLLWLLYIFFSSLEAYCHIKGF

IC50 (AGS [1]; Homo sapiens, AGS, 48 h): 2.65 µM
Structure (SMILES): CC(=O)O[C@H]1[C@@H](C)CC(O)=C2C(=O)c3c(O)ccc(-c4ccc5c(c4O)C(=O)C[C@](CO)([C@H]4OC(=O)C[C@@H]4C)O5)c3O[C@]21CO
Ratio IC50 (AGS [2]): 2 | Activity (GES1): Non-toxic

Structure (SMILES): CC(=O)OC[C@@]12Oc3ccc(-c4ccc5c(c4O)C(=O)C4=C(O)C[C@H](C)[C@H](OC(C)=O)[C@]4(COC(C)=O)O5)c(O)c3C(=O)C1=C(O)C[C@H](C)[C@@H]2OC(C)=O
IC50 (AGS [1]; Homo sapiens, AGS, 48 h): 6.23 µM | Activity (Gastric cancer cell): Active | Ratio IC50 (AGS [2]): 2 | Activity (GES1): Non-toxic

IC50 (AGS [1]; Homo sapiens, AGS, 48 h): 5.36 µM
Structure (SMILES): CC(=O)OC[C@@]12Oc3c(-c4ccc5c(c4O)C(=O)C4=C(O)C[C@H](C)[C@H](OC(C)=O)[C@]4(CO)O5)ccc(O)c3C(=O)C1=C(O)C[C@H](C)[C@@H]2OC(C)=O (stereo in doubt; 2) [listing 1 of 2 here]
Ratio IC50 (AGS [2]): 2 | Activity (GES1): Non-toxic

Structure (SMILES): CC(=O)O[C@H]1[C@@H](C)CC(O)=C2C(=O)c3c(ccc(-c4ccc(O)c5c4O[C@]4(CO)C(=C(O)C[C@H](C)[C@@H]4OC(C)=O)C5=O)c3O)O[C@]21CO
IC50 (AGS [1]; Homo sapiens, AGS, 48 h): 3.06 µM | Activity (Gastric cancer cell): Active | Ratio IC50 (AGS [2]): 2 | Activity (GES1): Non-toxic

Structure (SMILES): CC(=O)OC[C@@]12Oc3ccc(-c4ccc5c(c4O)C(=O)C4=C(O)C[C@H](C)[C@H](OC(C)=O)[C@]4(CO)O5)c(O)c3C(=O)C1=C(O)C[C@H](C)[C@@H]2OC(C)=O
IC50 (AGS [1]; Homo sapiens, AGS, 48 h): 3.47 µM | Activity (Gastric cancer cell): Active | Ratio IC50 (AGS [2]): 2 | Activity (GES1): Non-toxic

Structure (SMILES): CC(=O)OC[C@@]12Oc3c(-c4ccc5c(c4O)C(=O)C4=C(O)C[C@H](C)[C@H](OC(C)=O)[C@]4(CO)O5)ccc(O)c3C(=O)C1=C(O)C[C@H](C)[C@@H]2OC(C)=O (stereo in doubt; 2) [listing 2 of 2 here]
Activity (Gastric cancer cell): Active

IC50 (AGS [1]; Homo sapiens, AGS, 48 h): 5.2 µM | Activity [20]: Active | Activity [21]: inactive | Activity [22]: inactive | Activity [23]: inactive | Activity [24]: Active | Activity [25]: inactive | IC50 (B16 [33]): 5.36 µM
Structure (SMILES): CC(=O)OC[C@@]12Oc3c(-c4ccc(O)c5c4O[C@]4(CO)C(=C(O)C[C@H](C)[C@@H]4OC(C)=O)C5=O)ccc(O)c3C(=O)C1=C(O)C[C@H](C)[C@@H]2OC(C)=O
Activity (Gastric cancer cell): Active | Ratio IC50 (AGS [2]): 2 | Activity (GES1): Non-toxic | inhibition (AGS [3]): Active | inhibition (AGS [4]): Active | viability at 5 µM (AGS [5]): 91.8% | Activity (AGS [6]): 5.57% | Activity (AGS [7]): 2.54% | Activity (AGS [8]): 0.13% | viability at 10 µM (AGS [9]): 93.7% | Activity (AGS [10]): 4.24% | Activity (AGS [11]): 2.01% | Activity (AGS [12]): 0.094% | viability at 20 µM (AGS [13]): 77.3% | Activity (AGS [14]): 16.6% | Activity (AGS [15]): 5.94% | Activity (AGS [16]): 0.18% | Activity (AGS [17]): 48.8% | Activity (AGS [18]): 26.3% | Activity (AGS [19]): 24.9% | Activity (AGS [26]): Dose-dependent-effect | Activity (AGS [27]): Dose-dependent-effect | Activity (AGS [28]): Dose-dependent-effect | Activity (AGS [29]): inactive | Activity (AGS [30]): inactive | Activity (AGS [31]): inactive | Activity (AGS [32]): No effect | Activity (B16 [34]): Active | Activity (B16 [35]): inactive | Activity (B16 [36]): inactive | Activity (B16 [37]): Active; Activity Was Much Greater Than Cisplatin

Structure (SMILES): CC(=O)O[C@H]1[C@@H](C)CC(O)=C2C(=O)c3c(ccc(-c4ccc5c(c4O)C(=O)C4=C(O)C[C@H](C)[C@H](OC(C)=O)[C@]4(CO)O5)c3O)O[C@]21CO
IC50 (AGS [1]; Homo sapiens, AGS, 48 h): 3.45 µM | Activity (Gastric cancer cell): Active | Ratio IC50 (AGS [2]): 2 | Activity (GES1): Non-toxic

Activity [21]: inactive | Activity [22]: inactive | Activity [23]: inactive | Activity [24]: Active | Activity [25]: inactive
Structure (SMILES): CC(=O)OC[C@@]12Oc3c(-c4ccc5c(c4O)C(=O)C4=C(O)C[C@H](C)[C@H](OC(C)=O)[C@]4(CO)O5)ccc(O)c3C(=O)C1=C(O)C[C@H](C)[C@@H]2OC(C)=O (stereo in doubt; 3) [listing 1 of 2 here]
Activity (Gastric cancer cell): Active

IC50 (AGS [1]; ags): 3.89 µM
Structure (SMILES): CC(=O)OC[C@@]12Oc3c(-c4ccc5c(c4O)C(=O)C4=C(O)C[C@H](C)[C@H](OC(C)=O)[C@]4(CO)O5)ccc(O)c3C(=O)C1=C(O)C[C@H](C)[C@@H]2OC(C)=O (stereo in doubt; 3) [listing 2 of 2 here]

Structure (SMILES): CC(=O)O[C@H]1[C@@H](C)CC(O)=C2C(=O)c3c(O)ccc(-c4ccc(O)c5c4O[C@]4(CO)C(=C(O)C[C@H](C)[C@@H]4OC(C)=O)C5=O)c3O[C@]21CO
IC50 (AGS [1]; Homo sapiens, AGS, 48 h): 13.8 µM | Activity (Gastric cancer cell): Active | Ratio IC50 (AGS [2]): 2 | Activity (GES1): Non-toxic
